Test systems include 786-0; A498; A549; BT-549; COLO 205; EKVX; Hs-578T; M14; MDA-MB-231; NCI-H226; NCI-H460; NCI/ADR-RES; OVCAR-8; RXF 393; SK-MEL-2; SN12C; SNB-19; SW-620; TK-10; U-251.
Assay in all cases: NCI tumour cell line growth inhibition, 48 h

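Dose response: 5 concentrations. Exposure: 48 h. Format: 96-well plates. Endpoint: linear interpolation; highest concentration if not reached. GI50: concentration for 50% inhibition of growth.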 Calls of active or inactive are those of the source. No stated cut-off is given here; in the data, active = GI50 up to about 1.1 µM and inactive = higher. Where only a bound is given, the exact number is not on record here.

For `Cc1[nH]c2c(C)ccc(C)c2c1CC(=O)O`, the GI50 in the assay on 786-0 is 43.9 µM (inactive); in the assay on A498, 57 µM (inactive); with A549 it was 42.3 µM (inactive); with BT-549, 54.6 µM (inactive); with COLO 205, 40 µM (inactive); with EKVX it was 39 µM (inactive). In addition, the GI50 in the assay on Hs-578T is 25.2 µM (inactive); in the assay with M14 it was 41 µM (inactive); with MDA-MB-231, 13 µM (inactive); in the assay with NCI-H226 it was 33.7 µM (inactive); with NCI-H460, 31 µM (inactive); with NCI/ADR-RES, 54.6 µM (inactive). Moreover, the GI50 with OVCAR-8 was 32.5 µM (inactive); with RXF 393 it was > 100 µM (inactive); with SK-MEL-2 it was 18.2 µM (inactive); in the assay with SN12C, 34.3 µM (inactive); in the assay with SNB-19, 92 µM (inactive); in the assay with SW-620 it was 42.9 µM (inactive). Besides, the GI50 in the assay with TK-10 was 57 µM (inactive); in the assay with U-251, 35.9 µM (inactive).

Turning to `Nc1ncnc2c1ncn2C1OC(CO)C(O)C1N` (stereo not given), the GI50 in the assay on 786-0, in the assay with A498, in the assay on A549, with BT-549, in the assay with COLO 205 and with EKVX was > 100 µM (inactive) in each case. Also, the GI50 with Hs-578T was 0.08 µM (active); with M14, > 100 µM (inactive); in the assay with MDA-MB-231, > 100 µM (inactive); in the assay with NCI-H226, > 100 µM (inactive); in the assay on NCI-H460, > 100 µM (inactive); with NCI/ADR-RES it was > 100 µM (inactive). Also, the GI50 in the assay with OVCAR-8, in the assay on RXF 393, in the assay with SK-MEL-2, in the assay with SN12C, in the assay with SNB-19 and in the assay with SW-620 was > 100 µM (inactive) each time. In addition, the GI50 with TK-10 and in the assay on U-251 was > 100 µM (inactive) in each case.

Take `O=C(O)c1[nH]c(=O)[nH]c(=O)c1CN1CCCCC1`: the GI50 with 786-0, with A498, in the assay with A549, in the assay on BT-549, with COLO 205 and in the assay with EKVX was > 100 µM (inactive) throughout. In addition, the GI50 in the assay with Hs-578T, in the assay on M14, in the assay with MDA-MB-231, in the assay on NCI-H226, with NCI-H460 and with NCI/ADR-RES was > 100 µM (inactive) throughout. In addition, the GI50 in the assay on OVCAR-8, in the assay with RXF 393, with SK-MEL-2, with SN12C, with SNB-19 and in the assay with SW-620 was > 100 µM (inactive) throughout. Moreover, the GI50 with TK-10 and with U-251 was > 100 µM (inactive) each time.

For the compound `CC[C@@]1(O)C(=O)OCc2c1cc1n(c2=O)Cc2c-1nc1ccccc1c2/C=N\NC(=O)C(N)CO` (stereo not given in full), the GI50 in the assay with 786-0 was 0.34 µM (active); in the assay on A498, 1.65 µM (inactive); in the assay on A549, 1.05 µM (active); in the assay on BT-549 it was 2.56 µM (inactive); in the assay with COLO 205, 32.1 µM (inactive); in the assay on EKVX, 18.8 µM (inactive). The GI50 is > 67.9 µM (inactive) in the assay with Hs-578T; 0.492 µM (active) in the assay with M14; 28.4 µM (inactive) with MDA-MB-231; 0.627 µM (active) in the assay with NCI-H226; 0.184 µM (active) in the assay on NCI-H460; 0.785 µM (active) with NCI/ADR-RES. The GI50 with OVCAR-8 is 0.596 µM (active); in the assay on RXF 393 it was 1.14 µM (inactive); with SK-MEL-2, 32.4 µM (inactive); with SN12C, 0.182 µM (active); with SNB-19, 0.202 µM (active); in the assay on SW-620 it was 1.62 µM (inactive). For the same compound, the values for the GI50 in the assay on TK-10 and in the assay on U-251 were > 60.7 µM (inactive) and 0.232 µM (active), respectively.

In the case of `CC1(C)OC2C(CO)OC(n3ccc(N)nc3=O)C2O1` (stereo not given), the GI50 was > 100 µM (inactive) in the assay with 786-0; 21.5 µM (inactive) in the assay with A498; > 100 µM (inactive) in the assay on A549; > 100 µM (inactive) with BT-549; > 100 µM (inactive) in the assay on COLO 205; > 100 µM (inactive) in the assay with EKVX. Further, the GI50 in the assay on Hs-578T, with M14, in the assay with MDA-MB-231, in the assay on NCI-H226, in the assay on NCI-H460 and in the assay with NCI/ADR-RES was > 100 µM (inactive) throughout. Moreover, the GI50 in the assay on OVCAR-8, in the assay on RXF 393, in the assay on SK-MEL-2, in the assay with SN12C, in the assay with SNB-19 and in the assay on SW-620 was > 100 µM (inactive) each time. The GI50 with TK-10 and in the assay with U-251 was > 100 µM (inactive) each time.

For the compound `CC(=O)c1c(SCCN2CCCCCC2)n(-c2ccccc2)c(=S)n(-c2ccccc2)c1=O`, the GI50 in the assay with 786-0 was 1.73 µM (inactive); in the assay with A498, 13.4 µM (inactive); in the assay on A549, 6.82 µM (inactive); in the assay on BT-549 it was 16.6 µM (inactive); in the assay with COLO 205, 2.03 µM (inactive); in the assay with EKVX it was 19.2 µM (inactive). Further, the GI50 in the assay on Hs-578T was 17.7 µM (inactive); in the assay on M14, 2.15 µM (inactive); in the assay with MDA-MB-231, 14.4 µM (inactive); with NCI-H226 it was 29 µM (inactive); in the assay on NCI-H460 it was 24.7 µM (inactive); in the assay with NCI/ADR-RES it was 34.5 µM (inactive). Further, the GI50 in the assay with OVCAR-8 is 10.7 µM (inactive); with RXF 393, 1.73 µM (inactive); in the assay with SK-MEL-2, 19.4 µM (inactive); with SN12C, 5.92 µM (inactive); in the assay with SNB-19, 51.1 µM (inactive); in the assay with SW-620 it was 2.04 µM (inactive). Further, the GI50 in the assay with TK-10 is 2.07 µM (inactive); in the assay on U-251 it was 15.9 µM (inactive).

With `CN(C)CCCCN1c2ccccc2Sc2ccc(C(=O)c3ccccc3)cc21`, the GI50 is 1.82 µM (inactive) in the assay with 786-0; 13.8 µM (inactive) in the assay with A498; 3.47 µM (inactive) in the assay on A549; 6.01 µM (inactive) in the assay on BT-549; 1.64 µM (inactive) in the assay on COLO 205; 6.65 µM (inactive) in the assay with EKVX. In addition, the GI50 in the assay on Hs-578T was 2.22 µM (inactive); with M14, 1.67 µM (inactive); in the assay on MDA-MB-231, 2.11 µM (inactive); with NCI-H226 it was 5.96 µM (inactive); in the assay on NCI-H460, 2.24 µM (inactive); with NCI/ADR-RES, 4.39 µM (inactive). For the same compound, the GI50 is 3.33 µM (inactive) in the assay on OVCAR-8; 1.22 µM (inactive) with RXF 393; 2.71 µM (inactive) with SK-MEL-2; 3.11 µM (inactive) in the assay with SN12C; 4.06 µM (inactive) with SNB-19; 1.77 µM (inactive) in the assay on SW-620. In addition, the GI50 is 3.8 µM (inactive) in the assay with TK-10 and 2.41 µM (inactive) in the assay on U-251.

With `CC(/C=C/C=C/C=C/C=C/C=C/C(=O)C1=C(O)C(CCC(=O)O)N(C)C1=O)=C\C(C)C(OC1CC(O)C(O)C(C)O1)C(C)C` (stereo not given), the GI50 in the assay with 786-0 was 3.15 µM (inactive); in the assay with A498 it was 2.84 µM (inactive); in the assay on A549, 3.19 µM (inactive); in the assay on BT-549, 2.11 µM (inactive); with COLO 205, 2.18 µM (inactive); with EKVX, 3.31 µM (inactive). In addition, the GI50 is 5.85 µM (inactive) in the assay with Hs-578T; 3.26 µM (inactive) in the assay with M14; 2.9 µM (inactive) in the assay with MDA-MB-231; 3.48 µM (inactive) in the assay with NCI-H226; 2.96 µM (inactive) with NCI-H460; 13 µM (inactive) in the assay on NCI/ADR-RES. The GI50 in the assay with OVCAR-8 is 3.74 µM (inactive); in the assay with RXF 393, 3.07 µM (inactive); in the assay on SK-MEL-2 it was 1.78 µM (inactive); in the assay with SN12C it was 3.33 µM (inactive); in the assay on SNB-19, 2.81 µM (inactive); with SW-620, 4.13 µM (inactive). Also, the values for the GI50 with TK-10 and in the assay on U-251 were 2.49 µM (inactive) and 3.6 µM (inactive), respectively.

For the origin of these results see ChEMBL document CHEMBL1201862, “PubChem BioAssay data set” (2004).
